According to patent publication US9765069B2, “Antimicrobial compounds” (OXFORD UNIVERSITY INNOVATION LIMITED, priority 2012, dated 2017):
≈ marks a conversion by molar mass, not a printed value.

Tests used:
[1] = test system: P9; experiment: MIC determination (bacteria), strain P9; type: cell-based, S. pneumoniae; conditions: 2-fold broth dilution
Experimental: (§1) MIC determination (bacteria); MICs were determined based on Clinical and Laboratory Standards Institute (CLSI) methodology (Methods for dilution antimicrobial susceptibility tests for bacteria that grow aerobically; Approved Standard—seventh edition. 2006, M7-A7, CLSI, Wayne Pa.) by a 2-fold broth dilution technique in Mueller Hinton (pH7.4 Biorad). For S. pneumoniae, the medium was supplemented with 2.5% laked horse blood. For H. influenzae, the medium was haemophilus test medium (H.T.M.). Overnight cultures were diluted to obtain the final inoculum of 10^5 cfu/well. Incubation was 37° C. overnight in ambient air. The MIC was defined as the lowest concentration which inhibited all visual growth and expressed in μg/ml. For each bacterial species, all of the molecules were tested in the same experiment in order to give a head-to-head comparison.

[2] = test system: E2; experiment: MIC determination (bacteria), strain E2; type: cell-based, enterococcus; conditions: 2-fold broth dilution
Experimental: as §1

[3] = test system: E1; experiment: MIC determination (bacteria), strain E1; type: cell-based, enterococcus; conditions: 2-fold broth dilution
Experimental: as §1

[4] = test system: S26; experiment: MIC determination (bacteria), strain S26; type: cell-based, S. aureus; conditions: 2-fold broth dilution
Experimental: as §1

[5] = test system: H3; experiment: MIC determination (bacteria), strain H3; type: cell-based, H. influenzae; conditions: haemophilus test medium
Experimental: as §1

[6] = test system: P1; experiment: MIC determination (bacteria), strain P1; type: cell-based, S. pneumoniae; conditions: 2-fold broth dilution
Experimental: as §1

[7] = test system: S4; experiment: MIC determination (bacteria), strain S4; type: cell-based, S. aureus; conditions: 2-fold broth dilution
Experimental: as §1

[8] = test system: P9B; experiment: MIC determination (bacteria), strain P9B; type: cell-based, S. pneumoniae; conditions: 2-fold broth dilution
Experimental: as §1

[9] = test system: S1; experiment: MIC determination (bacteria), strain S1; type: cell-based, S. aureus; conditions: 2-fold broth dilution
Experimental: as §1

[10] = test system: H4; experiment: MIC determination (bacteria), strain H4; type: cell-based, H. influenzae; conditions: haemophilus test medium
Experimental: as §1

[11] = test system: S2 (S. aureus 2, MRSA in vivo); experiment: MIC determination (bacteria), strain S2; type: cell-based; conditions: 2-fold broth dilution
Experimental: as §1

[12] = Streptococcus pneumoniae, Table 2

| SMILES | MIC P9 ([1]; Table 2) [µg/mL] | MIC E2 ([2]; Table 2) [µg/mL] | MIC E1 ([3]; Table 2) [µg/mL] | MIC S26 ([4]; Table 2) [µg/mL] | MIC H3 ([5]; Table 2) [µg/mL] | MIC P1 ([6]; Table 2) [µg/mL] | MIC S4 ([7]; Table 2) [µg/mL] | MIC P9B ([8]; Table 2) [µg/mL] | MIC S1 ([9]; Table 2) [µg/mL] | MIC H4 ([10]; Table 2 and its footnote f) [µg/mL] | MIC S2 ([11]; Table 2) [µg/mL] | MIC P9 ([1]; Table 1) [µg/mL] | MIC E2 ([2]; Table 1) [µg/mL] | MIC E1 ([3]; Table 1) [µg/mL] | MIC S26 ([4]; Table 1) [µg/mL] | MIC H3 ([5]; Table 1) [µg/mL] | MIC P1 ([6]; Table 1) [µg/mL] | MIC S4 ([7]; Table 1) [µg/mL] | MIC P9B ([8]; Table 1) [µg/mL] | MIC S1 ([9]; Table 1) [µg/mL] | also measured |
| --- | --- | --- | --- | --- | --- | --- | --- | --- | --- | --- | --- | --- | --- | --- | --- | --- | --- | --- | --- | --- | --- |
| O=C1CCN(C(=O)c2ccccc2)C(=O)C1=C(O)CCCCC1CCCCC1 [19c] | 1 (≈ 2.61 µM) | 2 (≈ 5.22 µM) | 2 (≈ 5.22 µM) | 2 (≈ 5.22 µM) | 16 (≈ 41.7 µM) | 1 (≈ 2.61 µM) | 2 (≈ 5.22 µM) | 4 (≈ 10.4 µM) | 1 (≈ 2.61 µM) | 8 (≈ 20.9 µM) | 2 (≈ 5.22 µM) |  |  |  |  |  |  |  |  |  |  |
| O=C1CCN(C(=O)c2ccccc2)C(=O)/C1=C(\O)CCc1ccc(-c2ccccc2C(F)(F)F)o1 [19e] | 2 (≈ 4.14 µM) | 2 (≈ 4.14 µM) | 2 (≈ 4.14 µM) | 4 (≈ 8.27 µM) | >64 | 2 (≈ 4.14 µM) | 4 (≈ 8.27 µM) | 8 (≈ 16.5 µM) | 4 (≈ 8.27 µM) | 16 (≈ 33.1 µM) | 4 (≈ 8.27 µM) |  |  |  |  |  |  |  |  |  |  |
| CCCCCCCCCCC(O)=C1C(=O)C(CCSC)N(C(C)=O)C1=O (stereo not drawn) [24a] |  |  |  |  |  |  |  |  |  |  |  | 0.25 (≈ 0.652 µM) | 0.5 (≈ 1.3 µM) | 0.5 (≈ 1.3 µM) | 8 (≈ 20.9 µM) | 8 (≈ 20.9 µM) | 0.5 (≈ 1.3 µM) | 4 (≈ 10.4 µM) | 2 (≈ 5.21 µM) | 0.5 (≈ 1.3 µM) | MIC H4 ([10]; Table 1): 4 µg/mL (≈ 10.4 µM); MIC S2 ([11]; Table 1): 2 µg/mL (≈ 5.21 µM) |
| CCCCCC(O)=C1C(=O)C(CCSC)N(C(=O)C2CCCCC2)C1=O (stereo not drawn) [24d] |  |  |  |  |  |  |  |  |  |  |  | 2 (≈ 5.24 µM) | 2 (≈ 5.24 µM) | 2 (≈ 5.24 µM) | 4 (≈ 10.5 µM) | 32 (≈ 83.9 µM) | 2 (≈ 5.24 µM) | 2 (≈ 5.24 µM) | 4 (≈ 10.5 µM) | 2 (≈ 5.24 µM) | MIC H4 ([10]; Table 1): 4 µg/mL (≈ 10.5 µM); MIC S2 ([11]; Table 1): 4 µg/mL (≈ 10.5 µM) |
| CCCCCCCCCCCCCC(O)=C1C(=O)CCN(C(=O)c2ccccc2)C1=O [25c] |  |  |  |  |  |  |  |  |  |  |  | 1 (≈ 2.34 µM) | 1 (≈ 2.34 µM) | 2 (≈ 4.68 µM) | 4 (≈ 9.35 µM) | >64 | 1 (≈ 2.34 µM) | 1 (≈ 2.34 µM) | 8 (≈ 18.7 µM) | 2 (≈ 4.68 µM) | MIC H4 ([10]; Table 1): 32 µg/mL (≈ 74.8 µM); MIC S2 ([11]; Table 1): 2 µg/mL (≈ 4.68 µM) |
| CCCCCCC(=O)N1CC(=O)C(=C(O)CC2CCCCC2)C1=O [27b] | 0.5 (≈ 1.49 µM) | 2 (≈ 5.96 µM) | 2 (≈ 5.96 µM) | 4 (≈ 11.9 µM) | 4 (≈ 11.9 µM) | 1 (≈ 2.98 µM) | 4 (≈ 11.9 µM) | 2 (≈ 5.96 µM) | 2 (≈ 5.96 µM) | 0.5 (≈ 1.49 µM) | 4 (≈ 11.9 µM) |  |  |  |  |  |  |  |  |  |  |
| CCCC(=O)N1CC(=O)C(=C(O)CC23CC4CC(CC(C4)C2)C3)C1=O [27j] | 4 (≈ 11.6 µM) | 8 (≈ 23.2 µM) | 8 (≈ 23.2 µM) | 16 (≈ 46.3 µM) | 16 (≈ 46.3 µM) | 4 (≈ 11.6 µM) | 16 (≈ 46.3 µM) | 4 (≈ 11.6 µM) | 16 (≈ 46.3 µM) | 4 (≈ 11.6 µM) | 16 (≈ 46.3 µM) |  |  |  |  |  |  |  |  |  |  |
| CCCCCCC(=O)N1CC(=O)/C(=C(/O)CO[C@H]2C[C@@H](C)CC[C@@H]2C(C)C)C1=O [27n] |  |  |  |  |  |  |  |  |  |  |  |  |  |  |  |  |  |  |  |  | MIC [1, 12]: 0.5 µg/mL (≈ 1.23 µM); MIC ([2]; Enterococcus, Table 2): 2 µg/mL (≈ 4.91 µM); MIC ([3]; Enterococcus, Table 2): 8 µg/mL (≈ 19.6 µM); MIC ([4]; Staphylococcus aureus, Table 2): > 64 µg/mL; MIC ([5]; Haemophilus influenzae, Table 2): > 64 µg/mL; MIC [6, 12]: 0.5 µg/mL (≈ 1.23 µM); MIC ([7]; Staphylococcus aureus, Table 2): > 64 µg/mL; MIC [8, 12]: 8 µg/mL (≈ 19.6 µM); MIC ([9]; Staphylococcus aureus, Table 2): > 64 µg/mL; MIC ([10]; Haemophilus influenzae, Table 2 and its footnote f): 2 µg/mL (≈ 4.91 µM); MIC ([11]; Staphylococcus aureus, MRSA, Table 2): > 64 µg/mL |
| CCCC(=O)N1CC(=O)C(=C(O)CCCCC2CCCCC2)C1=O [27o] | 0.5 (≈ 1.49 µM) | 2 (≈ 5.96 µM) | 4 (≈ 11.9 µM) | 8 (≈ 23.8 µM) | 8 (≈ 23.8 µM) | 0.5 (≈ 1.49 µM) | 16 (≈ 47.7 µM) | 4 (≈ 11.9 µM) | 4 (≈ 11.9 µM) | 2 (≈ 5.96 µM) | 4 (≈ 11.9 µM) |  |  |  |  |  |  |  |  |  |  |
